From patent US8541588B2, “Sulfonamide derivatives” (Pfizer Limited, priority 2009, dated 2013)

Biological target: T1, Nav1.7 (or SCN9A) channel; HEK cells stably transfected with hSCN9A (Homo sapiens, UniProt Q15858)
T1 construct: expressed in transfected cells
Experiment: Nav1.7 block, PatchXpress 7000 automated whole-cell voltage clamp, estimated IC50 (EIC50)
Format: cell-based
Details: estimated IC50; hSCN9A HEK cells, PatchXpress platform; Examples 283-814

T1 sequence (Q15858 whole entry): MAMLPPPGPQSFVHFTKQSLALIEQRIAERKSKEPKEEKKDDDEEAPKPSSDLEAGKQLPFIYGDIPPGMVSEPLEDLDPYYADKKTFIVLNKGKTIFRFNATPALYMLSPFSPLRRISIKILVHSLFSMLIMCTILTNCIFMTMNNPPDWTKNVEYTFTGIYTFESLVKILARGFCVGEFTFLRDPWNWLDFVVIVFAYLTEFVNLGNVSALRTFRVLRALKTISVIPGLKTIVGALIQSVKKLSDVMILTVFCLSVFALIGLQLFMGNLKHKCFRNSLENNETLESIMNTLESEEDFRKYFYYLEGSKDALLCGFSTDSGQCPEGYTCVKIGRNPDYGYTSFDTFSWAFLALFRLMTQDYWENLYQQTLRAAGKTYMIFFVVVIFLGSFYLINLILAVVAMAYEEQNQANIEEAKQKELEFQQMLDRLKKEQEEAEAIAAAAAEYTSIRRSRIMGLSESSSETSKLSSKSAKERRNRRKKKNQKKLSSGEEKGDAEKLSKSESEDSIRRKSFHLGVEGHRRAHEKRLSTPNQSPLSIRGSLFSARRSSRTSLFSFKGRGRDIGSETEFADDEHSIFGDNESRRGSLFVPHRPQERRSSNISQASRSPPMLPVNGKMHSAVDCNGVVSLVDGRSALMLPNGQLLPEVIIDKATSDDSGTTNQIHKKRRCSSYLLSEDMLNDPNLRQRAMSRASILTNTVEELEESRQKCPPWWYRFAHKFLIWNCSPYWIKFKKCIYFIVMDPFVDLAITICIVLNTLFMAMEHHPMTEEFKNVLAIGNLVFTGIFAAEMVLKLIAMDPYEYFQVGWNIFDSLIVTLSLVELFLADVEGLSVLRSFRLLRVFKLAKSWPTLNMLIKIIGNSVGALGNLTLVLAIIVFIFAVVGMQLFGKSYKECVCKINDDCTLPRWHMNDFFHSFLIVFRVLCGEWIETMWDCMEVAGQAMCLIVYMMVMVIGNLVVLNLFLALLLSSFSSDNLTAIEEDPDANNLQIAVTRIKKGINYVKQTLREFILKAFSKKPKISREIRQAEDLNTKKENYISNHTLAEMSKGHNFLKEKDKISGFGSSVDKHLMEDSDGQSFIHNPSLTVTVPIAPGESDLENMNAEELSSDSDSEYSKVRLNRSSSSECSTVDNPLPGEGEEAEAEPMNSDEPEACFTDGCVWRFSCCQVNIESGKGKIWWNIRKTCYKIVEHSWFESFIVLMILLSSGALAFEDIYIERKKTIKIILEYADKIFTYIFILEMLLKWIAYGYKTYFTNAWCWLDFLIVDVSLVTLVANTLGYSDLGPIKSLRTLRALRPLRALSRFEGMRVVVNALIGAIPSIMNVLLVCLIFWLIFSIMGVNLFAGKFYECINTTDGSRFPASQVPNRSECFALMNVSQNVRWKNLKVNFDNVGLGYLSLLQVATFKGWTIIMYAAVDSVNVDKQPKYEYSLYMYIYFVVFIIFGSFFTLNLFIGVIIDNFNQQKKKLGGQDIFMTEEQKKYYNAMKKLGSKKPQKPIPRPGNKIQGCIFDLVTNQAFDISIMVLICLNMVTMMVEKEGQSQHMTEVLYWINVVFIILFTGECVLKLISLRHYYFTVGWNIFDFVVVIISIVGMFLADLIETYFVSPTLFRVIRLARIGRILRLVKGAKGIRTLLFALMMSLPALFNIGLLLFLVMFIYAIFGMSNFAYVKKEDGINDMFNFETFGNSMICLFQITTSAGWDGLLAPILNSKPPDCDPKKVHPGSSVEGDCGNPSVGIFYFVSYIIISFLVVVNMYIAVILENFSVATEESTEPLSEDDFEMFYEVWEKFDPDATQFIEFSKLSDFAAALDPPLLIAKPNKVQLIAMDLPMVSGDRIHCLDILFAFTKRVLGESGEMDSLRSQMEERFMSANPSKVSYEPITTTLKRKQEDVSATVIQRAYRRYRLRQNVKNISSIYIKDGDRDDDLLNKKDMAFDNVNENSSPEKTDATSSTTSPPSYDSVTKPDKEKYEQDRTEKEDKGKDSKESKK

IC50 [nM]	SMILES
260	Cn1nc(C(F)(F)F)cc1-c1ccc(Oc2cc(F)c(S(=O)(=O)Nc3nccs3)cc2F)cc1 [Example 678, 2,5-difluoro-4-{4-[1-methyl-3-(trifluoromethyl)-1H-pyrazol-5-yl]phenoxy}-N-1,3-thiazol-2-ylbenzenesulfonamide]
31	O=S(=O)(Nc1nccs1)c1cc(F)c(Oc2ccc(Cl)cc2-c2cn[nH]c2)cc1F [Example 679, 4-[4-chloro-2-(1H-pyrazol-4-yl)phenoxy]-2,5-difluoro-N-1,3-thiazol-2-ylbenzenesulfonamide]
1000	O=S(=O)(Nc1cscn1)c1ccc(Oc2ccc(Cl)cc2-c2cn[nH]c2)cc1F [Example 680, 4-[4-chloro-2-(1H-pyrazol-4-yl)phenoxy]-2-fluoro-N-1,3-thiazol-4-ylbenzenesulfonamide]
1200	Cn1nccc1-c1cc(Cl)ccc1Oc1ccc(S(=O)(=O)Nc2cscn2)c(F)c1 [Example 681, 4-[4-chloro-2-(1-methyl-1H-pyrazol-5-yl)phenoxy]-2-fluoro-N-1,3-thiazol-4-ylbenzenesulfonamide]
710	Cn1nc(C(F)(F)F)cc1-c1ccc(Oc2cc(F)c(S(=O)(=O)Nc3ncc(F)s3)cc2F)cc1 [Example 682, 2,5-difluoro-N-(5-fluoro-1,3-thiazol-2-yl)-4-{4-[1-methyl-3-(trifluoromethyl)-1H-pyrazol-5-yl]phenoxy}benzenesulfonamide]
22	O=S(=O)(Nc1ncc(F)s1)c1cc(F)c(Oc2ccc(Cl)cc2-c2cn[nH]c2)cc1F [Example 683, 4-[4-chloro-2-(1H-pyrazol-4-yl)phenoxy]-2,5-difluoro-N-(5-fluoro-1,3-thiazol-2-yl)benzenesulfonamide]
1000	Cn1nc(C(F)(F)F)cc1-c1ccc(Oc2ccc(S(=O)(=O)Nc3nccs3)cc2F)cc1 [Example 684, 3-fluoro-4-{4-[1-methyl-3-(trifluoromethyl)-1H-pyrazol-5-yl]phenoxy}-N-1,3-thiazol-2-ylbenzenesulfonamide]
130	O=S(=O)(Nc1nccs1)c1ccc(Oc2ccc(Cl)cc2-c2cn[nH]c2)c(F)c1 [Example 685, 4-[4-chloro-2-(1H-pyrazol-4-yl)phenoxy]-3-fluoro-N-1,3-thiazol-2-ylbenzenesulfonamide]
330	O=S(=O)(Nc1nccs1)c1ccc(Oc2ccc(F)cc2-c2cn[nH]c2)c(F)c1 [Example 686, 3-fluoro-4-[4-fluoro-2-(1H-pyrazol-4-yl)phenoxy]-N-1,3-thiazol-2-ylbenzenesulfonamide]
80	O=S(=O)(Nc1nccs1)c1ccc(Oc2ccc(OC(F)(F)F)cc2-c2cn[nH]c2)c(F)c1 [Example 687, 3-fluoro-4-[2-(1H-pyrazol-4-yl)-4-(trifluoromethoxy)phenoxy]-N-1,3-thiazol-2-ylbenzenesulfonamide]
5100	COc1cc(-c2cc(F)ccc2Oc2cc(F)c(S(=O)(=O)Nc3cscn3)cc2Cl)n(C)n1 [Example 688, 5-Chloro-2-fluoro-4-[4-fluoro-2-(3-methoxy-1-methyl-1H-pyrazol-5-yl)-phenoxy]-N-1,3-thiazol-4-yl-benzenesulfonamide]
>300	O=S(=O)(Nc1cscn1)c1cc(Cl)c(Oc2ccc(C(F)(F)F)cc2-c2cncc(CO)c2)cc1F [Example 689, 5-Chloro-2-fluoro-4-{2-[5-(hydroxymethyl)pyridin-3-yl]-4-(trifluoromethyl)phenoxy}-N-1,3-thiazol-4-ylbenzenesulfonamide]
110	N#Cc1cc(S(=O)(=O)Nc2nccs2)ccc1Oc1ccc(Cl)cc1C1CNC1 [Example 690, 4-(2-azetidin-3-yl-4-chlorophenoxy)-3-cyano-N-1,3-thiazol-2-ylbenzenesulfonamide]
110	Cc1ccccc1-c1cc(Cl)ccc1Oc1ccc(S(=O)(=O)Nc2nccs2)cc1C#N [Example 692, 4-[(5-chloro-2′-methylbiphenyl-2-yl)oxy]-3-cyano-N-1,3-thiazol-2-ylbenzenesulfonamide]
81	Cn1cc(-c2cc(Cl)ccc2Oc2ccc(S(=O)(=O)Nc3nccs3)cc2C#N)cn1 [Example 693, 4-[4-chloro-2-(1-methyl-1H-pyrazol-4-yl)phenoxy]-3-cyano-N-1,3-thiazol-2-ylbenzenesulfonamide]
480	N#Cc1cc(S(=O)(=O)Nc2nccs2)ccc1Oc1ccc(Cl)cc1-c1cnn[nH]1 [Example 694, 4-[4-chloro-2-(1H-1,2,3-triazol-5-yl)phenoxy]-3-cyano-N-1,3-thiazol-2-ylbenzenesulfonamide]
340	CCn1nc(C(F)(F)F)c(Cl)c1-c1ccc(Oc2ccc(S(=O)(=O)Nc3nccs3)cc2C#N)cc1 [Example 695, 4-{4-[4-chloro-1-ethyl-3-(trifluoromethyl)-1H-pyrazol-5-yl]phenoxy}-3-cyano-N-1,3-thiazol-2-ylbenzenesulfonamide]
78	N#Cc1cc(S(=O)(=O)Nc2nccs2)ccc1Oc1ccc(I)cc1-c1cn[nH]c1 [Example 696, 3-cyano-4-[4-iodo-2-(1H-pyrazol-4-yl)phenoxy]-N-1,3-thiazol-2-ylbenzenesulfonamide]
1.4	N#Cc1cc(S(=O)(=O)Nc2nccs2)ccc1Oc1ccc(Br)cc1-c1cn[nH]c1 [Example 697, 4-[4-Bromo-2-(1H-pyrazol-4-yl)phenoxy]-3-cyano-N-1,3-thiazol-2-ylbenzenesulfonamide]

IC50 [nM]	SMILES
96	Cc1ncsc1-c1cc(Cl)ccc1Oc1ccc(S(=O)(=O)Nc2nccs2)cc1C#N [Example 698, 4-[4-chloro-2-(4-methyl-1,3-thiazol-5-yl)phenoxy]-3-cyano-N-1,3-thiazol-2-ylbenzenesulfonamide]
140	Cn1nccc1-c1ccc(C(F)(F)F)cc1Oc1ccc(S(=O)(=O)Nc2nccs2)cc1C#N [Example 699, 3-cyano-4-[2-(1-methyl-1H-pyrazol-5-yl)-5-(trifluoromethyl)phenoxy]-N-1,3-thiazol-2-ylbenzenesulfonamide]
57	N#Cc1cc(S(=O)(=O)Nc2nccs2)ccc1Oc1ccc(Cl)cc1-c1cccnc1 [Example 700, 4-(4-chloro-2-pyridin-3-ylphenoxy)-3-cyano-N-1,3-thiazol-2-ylbenzenesulfonamide]
300	N#Cc1cc(S(=O)(=O)Nc2nccs2)ccc1Oc1ccc(Cl)cc1-c1cncnc1 [Example 701, 4-(4-chloro-2-pyrimidin-5-ylphenoxy)-3-cyano-N-1,3-thiazol-2-ylbenzenesulfonamide]
190	COc1cc(-c2ccccc2Oc2ccc(S(=O)(=O)Nc3nccs3)cc2C#N)ccc1C#N [Example 703]
11	N#Cc1cc(S(=O)(=O)Nc2nccs2)ccc1Oc1ccc(OC(F)(F)F)cc1-c1cn[nH]c1 [Example 704, 3-cyano-4-[2-(1H-pyrazol-4-yl)-4-(trifluoromethoxy)phenoxy]-N-1,3-thiazol-2-ylbenzenesulfonamide]
15	Cn1nccc1-c1cc(Br)ccc1Oc1ccc(S(=O)(=O)Nc2nccs2)cc1C#N [Example 705, 4-[4-bromo-2-(1-methyl-1H-pyrazol-5-yl)phenoxy]-3-cyano-N-1,3-thiazol-2-ylbenzenesulfonamide]
26	N#Cc1cc(S(=O)(=O)Nc2nccs2)ccc1Oc1ccc(Cl)cc1-c1c[nH]nc1N [Example 706, 4-[2-(3-amino-1H-pyrazol-4-yl)-4-chlorophenoxy]-3-cyano-N-1,3-thiazol-2-ylbenzenesulfonamide]
120	N#Cc1cc(S(=O)(=O)Nc2nccs2)ccc1Oc1ccccc1-c1cn[nH]c1N [Example 707, 4-[2-(5-amino-1H-pyrazol-4-yl)phenoxy]-3-cyano-N-1,3-thiazol-2-ylbenzenesulfonamide]
400	N#Cc1cc(S(=O)(=O)Nc2nccs2)ccc1Oc1ccc(-n2nc(C(F)F)cc2CO)cc1 [Example 708, 3-cyano-4-{4-[3-(difluoromethyl)-5-(hydroxymethyl)-1H-pyrazol-1-yl]phenoxy}-N-1,3-thiazol-2-ylbenzenesulfonamide]
14	N#Cc1cc(S(=O)(=O)Nc2nccs2)ccc1Oc1ccc(Cl)cc1-c1ccn[nH]1 [Example 709, 4-[4-chloro-2-(1H-pyrazol-5-yl)phenoxy]-3-cyano-N-1,3-thiazol-2-ylbenzenesulfonamide]
88	N#Cc1cc(S(=O)(=O)Nc2nccs2)ccc1Oc1ccc(Cl)cc1-c1[nH]ncc1F [Example 710, 4-[4-chloro-2-(4-fluoro-1H-pyrazol-5-yl)phenoxy]-3-cyano-N-1,3-thiazol-2-ylbenzenesulfonamide]
40	N#Cc1cc(S(=O)(=O)Nc2nccs2)ccc1Oc1cc(Cl)ccc1-c1ccn[nH]1 [Example 711, 4-[5-chloro-2-(1H-pyrazol-5-yl)phenoxy]-3-cyano-N-1,3-thiazol-2-ylbenzenesulfonamide]
1200	Cc1nc(NS(=O)(=O)c2ccc(Oc3ccccc3-c3ccccc3)c(C#N)c2)sc1F [Example 712, 4-(biphenyl-2-yloxy)-3-cyano-N-(5-fluoro-4-methyl-1,3-thiazol-2-yl)benzenesulfonamide]
2.4	N#Cc1cc(S(=O)(=O)Nc2ncc(F)s2)ccc1Oc1ccc(I)cc1-c1ccn[nH]1 [Example 713, 3-Cyano-N-(5-fluoro-1,3-thiazol-2-yl)-4-[4-iodo-2-(1H-pyrazol-5-yl)phenoxy]benzenesulfonamide]
190	N#Cc1cc(S(=O)(=O)Nc2ncc(F)s2)ccc1Oc1ccc(CCCO)cc1-c1cn[nH]c1 [Example 714, 3-cyano-N-(5-fluoro-1,3-thiazol-2-yl)-4-[4-(3-hydroxypropyl)-2-(1H-pyrazol-4-yl)phenoxy]benzenesulfonamide]
210	Cn1nccc1-c1cc(CCCO)ccc1Oc1ccc(S(=O)(=O)Nc2ncc(F)s2)cc1C#N [Example 715, 3-cyano-N-(5-fluoro-1,3-thiazol-2-yl)-4-[4-(3-hydroxypropyl)-2-(1-methyl-1H-pyrazol-5-yl)phenoxy]benzenesulfonamide]
430	Cn1nccc1-c1cc(CCO)ccc1Oc1ccc(S(=O)(=O)Nc2ncc(F)s2)cc1C#N [Example 716, 3-cyano-N-(5-fluoro-1,3-thiazol-2-yl)-4-[4-(2-hydroxyethyl)-2-(1-methyl-1H-pyrazol-5-yl)phenoxy]benzenesulfonamide]
